Patent US9567641B2, “Combination therapy for the treatment of cancer using an anti-C-met antibody” (SAMSUNG ELECTRONICS CO., LTD., priority 2013, dated 2017)
Values belong to the molecule of their own block, whether it stands above or below them.

Assays:
[1] = test system: MKN45 gastric cancer cell line with acquired resistance against L3-1Y/IgG2 antibody; assay: Cell viability, CellTiter Glo, resistance-acquired cell line; type: cell-based; details: 72 h
Protocol: To see whether the treatment RAF1 siRNA can overcome resistance acquired due to the repetitive treatment of an antibody, tests were carried out using MKN45 gastric cancer cell line which had been treated by L3-1Y/IgG2 antibody for 3 months or longer and acquired resistance against it. The resistance-acquired MKN45 gastric cancer cell line was prepared as follows: MKN45 cells (JCRB, JCRB0254) were treated with L3-1Y/IgG2 antibody in amounts being increased over 3 months or longer. The amount of L3-1Y/IgG2 antibody to be treated started from its initial treatment concentration of 1 ug/ml and was increased up to 10 ug/ml until resistance occurred. To confirm the acquisition of L3-1Y/IgG2 antibody resistance, the resistance-acquired clones were treated or not treated with L3-1Y/IgG2 antibody and then incubated, followed by CTG assays.
As a control group, All Negative control siRNA (Qiagen, cat. no. 1027281) was used, and as a target siRNA, a mixture of two kinds of siRNAs (see Table 7) that had effects during the screening was used. […]
(§1) 5000 cells of MKN45 cells which have acquired resistance against L3-1Y/IgG2 antibody were seeded onto a 96-well plate, and 24 hours after, the plate was treated with L3-1Y/IgG2 antibody and an ITGB3 inhibitor, cilengitide (Merck KGaA, EMD 121974). 72 hours later after the treatment, a change in the number of cells was measured using CellTiter Glo assay. The MKN45 cells which have acquired resistance against L3-1Y/IgG2 antibody were prepared referring to Example 4.3. Cilengitide was treated at a fixed concentration of 10 uM, and the L3-1Y/IgG2 antibody was treated by ⅕ dilution each time starting from 2 ug/ml. For comparison, the same test was conducted using L3-1Y/IgG2 antibody alone.
as §1, with “AKT” for “ITGB3”, “MK-2206” for “cilengitide”, “& Co Inc).” for “KGaA, EMD 121974).”, “MK-2206” for “Cilengitide”, “5” for “10”
To verify whether or not the resistance acquired by repetitive administration of anti-c-Met antibody can be overcome by BCL2L1 inhibition, L3-1Y/IgG2 antibody resistance acquired MKN45 cells, where the resistance against L3-1Y/IgG2 antibody is acquired by treating MKN45 gastric cancer cells (JCRB, JCRB0254) with the L3-1Y/IgG2 antibody for at least 3 months, were used. The L3-1Y/IgG2 antibody resistance acquired MKN45 gastric cancer cells were prepared referring to Example 4.3. […]

[2] = test system: L3-1Y/IgG2 antibody resistance acquired EBC1 lung cancer cells; assay: as above; type: cell-based; details: ABT-263 0.5 uM co-treated with L3-1Y/IgG2 (1/5 dilutions from 2 ug/ml), 72 h
Protocol: To verify whether or not the resistance acquired by repetitive administration of anti-c-Met antibody can be overcome by BCL2L1 inhibition, L3-1Y/IgG2 antibody resistance acquired EBC1 cells, where the resistance against L3-1Y/IgG2 antibody is acquired by treating EBC1 lung cancer cells (JCRB, JCRB0820) with the L3-1Y/IgG2 antibody for at least 3 months, were used. The L3-1Y/IgG2 antibody resistance acquired EBC1 lung cancer cells were prepared referring to Example 4.3.
5000 cells of the L3-1Y/IgG2 antibody resistance acquired EBC1 cells were seeded onto a 96-well plate and 24 hours after, the plate was treated with a BCL2 family inhibitor, ABT-263 (Abbott Laboratories) and 72 hours later after the antibody treatment, a change in the number of cells was measured using CellTiter Glo assay. ABT-263 was treated at a fixed concentration of 0.5 uM, and the L3-1Y/IgG2 antibody was treated by ⅕ dilution each time starting from 2 ug/ml.

[3] = test system: MKN45 gastric cancer cell line; assay: Cell viability, CellTiter Glo, combination with L3-1Y/IgG2 antibody; type: cell-based; details: ABT-263 5 uM co-treated with L3-1Y/IgG2 0.08 ug/ml, 72 h
[4] = test system: HCC1806 breast cancer cells; assay: as above; type: cell-based; details: 72 h
Protocol: The efficacy of the combination administration of ITGB3 siRNA and L3-1Y/IgG2 antibody was examined in a breast cancer cell line on which the anti-c-Met antibody alone has no effects. For this, HCC1806 (ATCC, CRL-2335) and HCC1954 (ATCC, CRL-2338) cells were used.
As a control group, All Negative control siRNA (Qiagen, cat. no. 1027281) was used, and as a target siRNA, a mixture of two kinds of siRNAs (see Table 7) that had effects during the screening was used. Transfection was carried out by the same procedures as Example 3.1 and after 24 hours, the cultured cells were treated with L3-1Y/IgG2 antibody at 0 ug/ml, 0.016 ug/ml, 0.08 ug/ml, 0.4 ug/ml, or 2 ug/ml. 72 hours later after the treatment, 100 uL of CellTiter Glo solution (Promega, G7572) was added to each well, which was allowed to stay at a room temperature for 30 min. The number of cells was counted via luminescence signals, which were recorded using Envision 2104 Multi-label Reader (Perkin Elmer).
To verify the effect of the combination therapy using ITGB3 inhibitor and anti-c-Met antibody in breast cancer cells on which the anti-c-Met antibody has no effects, HCC1806 (ATCC, CRL-2335) cells were used. The HCC 1806 cells are a cell line known to have high amounts of c-Met.
as §1, with “HCC1806” for “MKN45”, “cells” for “cells which have acquired resistance against L3-1Y/IgG2 antibody”, “assay.” for “assay. The MKN45 cells which have acquired resistance against L3-1Y/IgG2 antibody were prepared referring to Example 4.3.”
The efficacy of combination administration was examined in a breast cancer cell line on which the anti-c-Met antibody has no effects. For this, HCC1806 (ATCC, CRL-2335) cells were used.
5000 HCC1806 cells were seeded onto a 96-well plate and 24 hours after, the plate was treated with L3-1Y/IgG2 antibody and an AKT inhibitor, MK-2206 (Merck & Co Inc) and 72 hours later after the antibody treatment, a change in the number of cells was measured using CellTiter Glo assay. MK-2206 was treated at a fixed concentration of 10 uM, and the L3-1Y/IgG2 antibody was treated by ⅕ dilution each time starting from 2 ug/ml. For comparison, the same test was conducted using L3-1Y/IgG2 antibody alone.

[5] = biological target: c-Met (Homo sapiens, UniProt P08581); assay: Affinity / specificity for c-Met; type: binding; details: expressed scFv
[6] = cilengitide 10 uM co-treated with L3-1Y/IgG2 (1/5 dilutions from 2 ug/ml)

Sequence of c-Met (P08581 25-1390): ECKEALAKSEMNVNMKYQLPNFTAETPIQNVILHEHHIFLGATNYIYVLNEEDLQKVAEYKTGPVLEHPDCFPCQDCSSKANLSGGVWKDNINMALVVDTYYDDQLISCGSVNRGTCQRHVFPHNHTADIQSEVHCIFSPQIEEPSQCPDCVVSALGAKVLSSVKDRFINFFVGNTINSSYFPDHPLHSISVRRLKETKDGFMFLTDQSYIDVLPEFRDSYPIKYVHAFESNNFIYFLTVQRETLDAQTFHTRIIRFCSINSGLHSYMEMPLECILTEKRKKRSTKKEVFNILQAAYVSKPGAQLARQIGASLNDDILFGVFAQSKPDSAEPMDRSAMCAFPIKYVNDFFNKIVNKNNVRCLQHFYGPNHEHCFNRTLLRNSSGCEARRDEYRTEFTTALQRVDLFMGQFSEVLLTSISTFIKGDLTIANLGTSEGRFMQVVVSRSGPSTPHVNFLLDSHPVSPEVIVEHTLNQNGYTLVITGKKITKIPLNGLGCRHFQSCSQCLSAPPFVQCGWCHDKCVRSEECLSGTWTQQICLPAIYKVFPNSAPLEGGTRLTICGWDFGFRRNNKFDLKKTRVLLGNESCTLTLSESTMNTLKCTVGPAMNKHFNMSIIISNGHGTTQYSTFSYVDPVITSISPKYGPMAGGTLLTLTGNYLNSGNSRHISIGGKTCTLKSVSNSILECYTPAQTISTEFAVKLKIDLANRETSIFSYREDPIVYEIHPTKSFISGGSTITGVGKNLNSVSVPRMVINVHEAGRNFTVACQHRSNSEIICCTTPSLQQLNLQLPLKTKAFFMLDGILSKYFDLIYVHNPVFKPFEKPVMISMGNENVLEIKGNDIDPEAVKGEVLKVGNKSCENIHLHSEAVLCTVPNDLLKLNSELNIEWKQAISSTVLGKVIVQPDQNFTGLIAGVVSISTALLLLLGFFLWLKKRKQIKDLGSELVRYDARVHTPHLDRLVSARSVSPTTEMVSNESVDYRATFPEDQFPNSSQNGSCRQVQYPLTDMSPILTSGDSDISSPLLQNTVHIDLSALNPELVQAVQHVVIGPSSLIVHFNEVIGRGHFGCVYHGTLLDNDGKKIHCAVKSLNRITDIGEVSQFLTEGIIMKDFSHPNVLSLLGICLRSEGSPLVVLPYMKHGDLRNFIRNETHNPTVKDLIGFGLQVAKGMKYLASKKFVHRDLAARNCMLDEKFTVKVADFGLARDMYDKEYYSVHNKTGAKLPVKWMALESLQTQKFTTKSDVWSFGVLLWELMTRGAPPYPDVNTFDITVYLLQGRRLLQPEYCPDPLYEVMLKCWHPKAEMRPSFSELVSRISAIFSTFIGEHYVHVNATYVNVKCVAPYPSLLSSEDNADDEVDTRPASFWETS

Molecule: CC1(C)CCC(c2ccc(Cl)cc2)=C(CN2CCN(c3ccc(C(=O)NS(=O)(=O)c4ccc(N[C@H](CCN5CCOCC5)CSc5ccccc5)c(S(=O)(=O)C(F)(F)F)c4)cc3)CC2)C1 [ABT-263, 4-[4-[[2-(4-Chlorophenyl)-5,5-dimethyl-1-cyclohexen-1-yl]methyl]-1-piperazinyl]-N-[[4-[[(1R)-3-(4-morpholinyl)-1-[(phenylthio)methyl]propyl]amino]-3-[(trifluoromethyl)sulfonyl]phenyl]sulfonyl]benzamide]
cancer cell growth inhibitory effect (cell viability) ([1]; ABT-263 2.5 uM co-treated with L3-1Y/IgG2 (1/5 dilutions from 2 ug/ml)): can be achieved
cancer cell growth inhibitory effect (cell viability) [2]: can be achieved
growth inhibitory effect (cell viability) [3]: increased compared to the case that the L3-1Y/IgG2 antibody was treated alone

Molecule: NC1(c2ccc(-c3nc4ccn5c(=O)[nH]nc5c4cc3-c3ccccc3)cc2)CCC1 [MK-2206, 8-(4-(1-aminocyclobutyl)phenyl)-9-phenyl-[1,2,4]triazolo[3,4-f][1,6]naphthyridin-3(2H)-one, reference compound]
growth inhibitory effect (cell viability) ([1]; MK-2206 5 uM co-treated with L3-1Y/IgG2 (1/5 dilutions from 2 ug/ml)): exhibited
cancer cell growth inhibitory efficacy (cell viability) ([4]; MK-2206 10 uM co-treated with L3-1Y/IgG2 (1/5 dilutions from 2 ug/ml)): exhibited

Molecule: CC(C)[C@H]1C(=O)N[C@@H](CCCNC(=N)N)C(=O)NCC(=O)N[C@@H](CC(=O)O)C(=O)N[C@H](Cc2ccccc2)C(=O)N1C [cilengitide, Cyclo(L-arginylglycyl-L-α-aspartyl-D-phenylalanyl-N-methyl-L-valyl), reference compound]
growth inhibitory effect (cell viability) [1, 6]: exhibited
growth inhibitory effect (cell viability) [4, 6]: exhibited

specificity to c-Met [5]: specificity to c-Met
B1: scFv of huAbF46: scFv of huAbF46, VH-linker-VL, encoded by SEQ ID NO: 55 (protein)
scFv: EVQLVESGGGLVQPGGSLRLSCAASGFTFTDYYMSWVRQAPGKGLEWLGFIRNKANGYTTEYSASVKGRFTISRDNSKNTLYLQMNSLRAEDTAVYYCARDNWFAYWGQGTLVTVSSGLGGLGGGGSGGGGSGGSSGVGSDIQMTQSPSSLSASVGDRVTITCKSSQSLLASGNQNNYLAWHQQKPGKAPKMLIIWASTRVSGVPSRFSGSGSGTDFTLTISSLQPEDFATYYCQQSYSAPLTFGQGTKVEIKR
